From patent publication US3985758A, “1,4-Dihydropyridine derivatives” (Yamanouchi Pharmaceutical Co., Ltd., priority 1973, dated 1976)
In brackets after ≈: the same amount, converted by molar mass. Structures can show the parent of a compound that is named as a salt. Where two headings read alike, the source gives them in different places.

How the values were obtained:
[1] = in vivo; details: mouse, in vivo, iv
Procedure: LD50 was determined by using mice.
2. Acute toxicity in mice
Male ICR weighing 25 to 32 g were used. The test compounds were injected into tail vein and LD 50 values were determined.

[2] = tested on: vertebral and femoral blood flow; assay: Vertebral and femoral blood flow in anesthetized dogs; type: in vivo, mongrel dog; details: 0.01 mg/kg i.v. (0.01 or 0.03 mg/kg); for Blood pressure change (Δ mmHg): femoral artery; for Separation ratio (percent increase of vertebral blood flow / that of femoral blood flow): significance vs SKF 24260
Procedure: Vertebral and femoral blood flow in anesthetized dogs.
Mongrel dogs of both sexes weighing from 12 to 27 kg were anesthetized with sodium pentobarbitol (30 mg/kg i.v.). In all experiments, trachea was cannulated and the animals were artificially ventilated with room air. Blood pressure in cannulated femoral artery was measured by means of a pressure transducer (Nihon Kohden, MPU 0.5). Vertebral and femoral blood flow were measured by a noncannulating electromagnetic flowmeter (Nihon Kohden, MF-25) positioned around the vessels. Recordings were made on an ink-writing polygraph (Nihon Kohden, RM-150 or RM-85). The test compounds were injected at a dose of 0.01 mg/kg into femoral vein.

[3] = Solubility in water at 25° C; type: physicochemical
[4] = tested on: anesthetized dogs
[5] = tested on: femoral artery; assay: Direct vasodilating effect on femoral artery, constant volume perfusion; type: in vivo, mongrel dog; details: intra-arterial; ±SE; maximum response to papaverine 3000 μg i.a. = 100%
Source text: For the analysis of the selective effect on vasculature by the drugs, direct effect on cerebral (vertebral artery) and peripheral (femoral artery) vascular bed were studied by the method of the constant volume perfusion.
(§1) Heparin (1000 μ/Kg, i.v.) was used as an anticoagulant. The methods for perfusion of each artery were as following: 1) For the vertebral artery, the arterial blood led from the left common carotid artery was collected by the tygon tubing and perfused by the Sigma-motor pump (Mippleport N.Y. T-8) into the right vertebral artery. 2) For the femoral artery, the arterial blood led from the proximal femoral artery was perfused by the Sigma-motor pump into the distal femoral artery. […] All drugs were given into a rubber tube connected close to the each arterial cannula by a microinjector (Jintan Terumo, NSN-100).

[6] = tested on: vertebral artery; assay: Direct vasodilating effect on vertebral artery, constant volume perfusion; type: in vivo, mongrel dog; details: intra-arterial
Source text: as §1

[7] = tested on: guinea-pig ileum; assay: Spasmolytic activity in isolated guinea-pig ileum (Magnus apparatus); details: Cavia porcellus, ±S.E.
Procedure: Methods: Isolated guinea-pig ileum was suspended in Tyrodes solution by use of Magnus apparatus and the movements of the muscle were recorded in a kymograph by an isotonic lever.

[8] = compounds of the present invention, 25° C
[9] = compounds of the present invention, 25° C, at the given pH, read-out: Solubility

## COC(=O)C1=C(C)NC(C)=C(C(=O)OC)C1c1ccccc1C#N [reference compound]
[1]
  LD50: 7.4 mg/kg
[2]
  Femoral blood flow (FBF %): 109 ± 28.0%
  Vertebral blood flow (VBF Δ %): 97 ± 16.0 Δ %
  Blood pressure change (Δ mmHg): -38 ± 6.0 Δ mmHg
  Separation ratio (percent increase of vertebral blood flow / that of femoral blood flow): 1.20 ± 0.27
[3]; known compounds, 25° C
  pH (of solubility determination): 5.80
[3]; known compounds, 25° C, at the given pH, read-out: Solubility
  solubility: 10 µg/mL (≈ 30.6 µM)
[3]; known compounds, pH 4.00, 25° C, read-out: Solubility at pH 4.00
  solubility: 1 µg/mL (≈ 3.06 µM)

## CCOC(=O)C1=C(C)NC(C)=C(C(=O)OCCN(C)Cc2ccccc2)C1c1cccc([N+](=O)[O-])c1 (stereo not drawn) [Example 6, 2,6-dimethyl-4-(3'-nitrophenyl)-1,4-dihydropyridine-3,5-dicarboxylic acid 3-ethylester-5-β-(N-benzyl-N-methylamino)ethyl ester]
[3]; [8]
  pH (of solubility determination): 4.20
[3]; [9]
  solubility: 2900 µg/mL (≈ 5880 µM)

## CC1=C(C(=O)OCCN(C)Cc2ccccc2)C(c2cccc([N+](=O)[O-])c2)C(C(=O)OC(C)C)=C(C)N1 (stereo not drawn) [Example 1, 2,6-dimethyl-4-(3'-nitrophenyl)-1,4-dihydropyridine-3,5-dicarboxylic acid-3-isopropylester-5-β-(N-benzyl-N-methylamino)-ethyl ester hydrochloride]
[3]; [8]
  pH (of solubility determination): 4.12
[3]; [9]
  solubility: 3100 µg/mL

## CCOC(=O)C1=C(C)NC(C)=C(C(=O)OCCN(C)Cc2ccccc2)C1c1cccc([N+](=O)[O-])c1 (stereo not drawn) [R5=C2H5O, A=CH2CH2, R3=drawing 10, R4=CH3, 2,6-Dimethyl-4-(3'-nitrophenyl)-1,4-dihydropyridine-3,5-dicarboxylic acid 3-β-(N-benzyl-N-methylamino)ethyl ester 5-ethyl ester]
[1]
  LD50: 15 mg/kg

## CCN(CCOC(=O)C1=C(C)NC(C)=C(C(=O)OC(C)C)C1c1cccc([N+](=O)[O-])c1)Cc1ccccc1 (stereo not drawn) [R5=drawing 11, A=CH2CH2, R3=drawing 10, R4=C2H5, 2,6-Dimethyl-4-(3'-nitrophenyl)-1,4-dihydropyridine-3,5-dicarboxylic acid 3-β-(N-benzyl-N-ethylamino)ethyl ester 5-isopropyl ester]
[1]
  LD50: 12 mg/kg

## COc1ccc(CN(C)CCOC(=O)C2=C(C)NC(C)=C(C(=O)OCCN(C)Cc3ccc(OC)cc3)C2c2cccc([N+](=O)[O-])c2)cc1 [Example 16, dihydrochloride]
[3]; [8]
  pH (of solubility determination): 3.20
[3]; [9]
  solubility: 25300 µg/mL

## CC1=C(C(=O)OCCN(C)Cc2ccccc2)C(c2cccc([N+](=O)[O-])c2)C(C(=O)OC(C)C)=C(C)N1 (stereo not drawn) [R5=drawing 11, A=CH2CH2, R3=drawing 10, R4=CH3, 2,6-Dimethyl-4-(3'-nitrophenyl)-1,4-dihydropyridine-3,5-dicarboxylic acid 3-β-(N-benzyl-N-methylamino)ethyl ester 5-isopropyl ester]
[1]
  LD50: 15 mg/kg

## COc1ccc(Cc2nccc3cc(OC)c(OC)cc23)cc1OC [Papaverine]
[4]; 0.1 mg/Kg i.v.
  Heart rate (Δbeats/min.±SE): 8±1.5 Δbeats/min.
  Mean blood pressure (ΔmmHg±SE): -9±1.1 ΔmmHg
  Vertebral blood flow (Δ%±SE): 22±3.4 Δ%
[4]; 0.3 mg/Kg i.v.
  Heart rate (Δbeats/min.±SE): 22±3.5 Δbeats/min.
  Mean blood pressure (ΔmmHg±SE): -21±2.8 ΔmmHg
  Vertebral blood flow (Δ%±SE): 67±7.1 Δ%
[4]; 1.0 mg/Kg i.v.
  Heart rate (Δbeats/min.±SE): 44±4.8 Δbeats/min.
  Mean blood pressure (ΔmmHg±SE): -32±3.5 ΔmmHg
  Vertebral blood flow (Δ%±SE): 124±13.8 Δ%
[5]
  Vasodilation ED50, femoral artery: 48.8 ± 3.73 µg
[6]; anesthetized dogs
  Selectivity ratio (ED50 in femoral artery/ED50 in vertebral artery): 0.67
[6]; ±SE, maximum response to papaverine 3000 μg i.a. = 100%
  Vasodilation ED50, vertebral artery: 72.8 ± 8.71 µg
[7]; read-out: Spasmolytic activity, 50% inhibition of contractile response, Acetylchloline 10^-7 g/ml
  IC50: 11 µg/mL (≈ 32.4 µM)
[7]; read-out: Spasmolytic activity, 50% inhibition of contractile response, BaCl2 2×10^-4 g/ml
  IC50: 7.2 µg/mL (≈ 21.2 µM)
[7]; read-out: Spasmolytic activity, 50% inhibition of contractile response, Histamine 10^-7 g/ml
  IC50: 7 µg/mL (≈ 20.6 µM)

## CC(=O)C1=C(C)NC(C)=C(C(=O)OCCN(C)Cc2ccccc2)C1c1cccc([N+](=O)[O-])c1 (stereo not drawn) [R5=CH3, A=CH2CH2, R3=drawing 14, R4=CH3, 3-Acetyl-2,6-dimethyl-4-(3'-nitrophenyl)-1,4-dihydropyridine-5-carboxylic acid 3-β-(N-benzyl-N-methylamino)ethyl ester]
[1]
  LD50: 40 mg/kg

## 2,6-dimethyl-4-(2'-nitrophenyl)-1,4-dihydropyridine-3,5-dicarboxylic acid bis[β-(N-benzyl-N-methylaminethyl] ester hydrochloride [Example 9]
[3]; [8]
  pH (of solubility determination): 3.16
[3]; compounds of the present invention, 25° C, at the given pH
  solubility: 2.74%

## CCOC(=O)C1=C(C)NC(C)=C(C(=O)OCCN(C)Cc2ccc(Cl)cc2)C1c1cccc([N+](=O)[O-])c1 (stereo not shown) [R5=C2H5O, A=CH2CH2, R3=drawing 13, R4=CH3]
[1]
  LD50: 12 mg/kg

## COC(=O)C1=C(C)NC(C)=C(C(=O)OCCN(C)Cc2ccccc2)C1c1ccccc1C(F)(F)F (stereo not drawn) [Example 24, 2,6-dimethyl-4-(o-trifluoromethyl-phenyl)-1,4-dihydropyridine-3,5-dicarboxylic acid 3-β-(N-benzyl-N-methylamino)ethyl ester 5-methyl ester hydrochloride]
[1]
  LD50: 23.7 mg/kg
[2]
  Femoral blood flow (FBF %): 67 ± 10.5%
  Vertebral blood flow (VBF Δ %): 119 ± 20.4 Δ %
  Blood pressure change (Δ mmHg): -28 ± 4.9 Δ mmHg
  Separation ratio (percent increase of vertebral blood flow / that of femoral blood flow): 2.04 ± 0.53
[3]; [8]
  pH (of solubility determination): 3.91
[3]; [9]
  solubility: 2300 µg/mL

## CCOC(=O)C1=C(C)NC(C)=C(C(=O)OCCN(C)Cc2ccc(OC)cc2)C1c1cccc([N+](=O)[O-])c1 (stereo not shown) [R5=C2H5O, A=CH2CH2, R3=drawing 12, R4=CH3]
[1]
  LD50: 10 mg/kg

## CCOC(=O)C1=C(C)NC(C)=C(C(=O)OCCN(C)Cc2ccc(OC)cc2)C1c1cccc([N+](=O)[O-])c1 (stereo not drawn) [Example 14, 2,6-dimethyl-4-(3'-nitrophenyl)-1,4-dihydropyridine-3,5-dicarboxylic acid 3-ethyl ester 5-β-(N-methyl-N-p-methoxybenzylamino)ethyl ester]
[3]; [8]
  pH (of solubility determination): 4.17
[3]; [9]
  solubility: 1000 µg/mL (≈ 1910 µM)

## COC(=O)C1=C(C)NC(C)=C(C(=O)OCCN(C)Cc2ccccc2)C1c1ccccc1[N+](=O)[O-] (stereo not drawn) [Example 36, 2,6-dimethyl-4-(2'-nitrophenyl)-1,4-dihydropyridine-3.5-dicarboxilic acid 3-methyl ester 5-β-(N-benzyl-N-methylamino) ethyl ester hydrochloride]
[1]
  LD50: 14 mg/kg
[2]
  Femoral blood flow (FBF %): 83 ± 14.1%
  Vertebral blood flow (VBF Δ %): 167 ± 31.7 Δ %
  Blood pressure change (Δ mmHg): -26 ± 5.0 Δ mmHg
  Separation ratio (percent increase of vertebral blood flow / that of femoral blood flow): 2.21 ± 0.56

## CC1=C(C(=O)OCCN(C)Cc2ccccc2)C(c2ccccc2[N+](=O)[O-])C(C(=O)OC(C)C)=C(C)N1 (stereo not drawn) [Example 4, 2,6-dimethyl-4-(2'-nitrophenyl)-1,4-dihydropyridine-3,5-dicarboxylic acid 3-isopropylester-5-β-(N-benzyl-N-methylamino)ethyl ester]
[3]; [8]
  pH (of solubility determination): 4.10
[3]; [9]
  solubility: 3200 µg/mL (≈ 6300 µM)

## CC(=O)C1=C(C)NC(C)=C(C(=O)OCCN(C)Cc2ccc(Cl)cc2)C1c1cccc([N+](=O)[O-])c1 (stereo not drawn) [R5=CH3, A=CH2CH2, R3=drawing 15, R4=CH3, 3-Acetyl-2,6-dimethyl-4-(3'-nitrophenyl)-1,4-dihydropyridine-5-carboxylic acid 3-β-(N-p-chlorobenzyl-N-methylamino)ethyl ester]
[1]
  LD50: 45 mg/kg

## CC1=C(C(=O)OCCCN(C)Cc2ccccc2)C(c2cccc([N+](=O)[O-])c2)C(C(=O)OC(C)C)=C(C)N1 (stereo not shown) [2,6-dimethyl-4-(3'-nitrophenyl)-1,4-dihydropyridine-3,5-dicarboxylic acid 3-isopropylester-5-γ-(N-benzyl-N-methylamino)propyl ester]
[1]
  LD50: 10 mg/kg
